Tests used:
[1] = target: T1, laccase derived from Trametes villosa, TvL (Trametes villosa, UniProt Q99044); assay: Effect of laccase on tobacco constituents, UV/Vis spectra before and after treatment (Example 1); type: biochemical; settings: 9 mM Na-acetate buffer pH 5.0; 4.8% Ethanol; 0.025 mg/ml of tobacco constituent; 0.016 mg/ml laccase; spectra 190-700 nm every 20 seconds for 5 minutes
T1 construct: purchased Novo Nordisk A/S
T1 sequence (Q99044 22-520): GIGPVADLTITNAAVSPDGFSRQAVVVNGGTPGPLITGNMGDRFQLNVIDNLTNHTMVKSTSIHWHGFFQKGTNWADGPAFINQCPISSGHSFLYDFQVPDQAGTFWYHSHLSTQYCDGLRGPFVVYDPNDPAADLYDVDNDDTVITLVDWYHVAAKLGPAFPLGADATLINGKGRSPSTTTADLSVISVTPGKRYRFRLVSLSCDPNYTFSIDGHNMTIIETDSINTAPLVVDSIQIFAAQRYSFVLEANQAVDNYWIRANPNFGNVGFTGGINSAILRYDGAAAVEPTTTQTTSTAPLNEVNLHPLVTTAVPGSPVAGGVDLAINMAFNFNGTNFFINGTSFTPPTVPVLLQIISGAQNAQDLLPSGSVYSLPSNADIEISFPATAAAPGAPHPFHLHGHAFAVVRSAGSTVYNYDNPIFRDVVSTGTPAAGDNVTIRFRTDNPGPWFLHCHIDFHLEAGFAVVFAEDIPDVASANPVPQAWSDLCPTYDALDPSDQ
Description: Tobacco constituents: Nicotine, Chlorogenic acid, Rutin and Scopoletin. Enzyme: Purified laccase derived from Trametes villosa, TvL. Apparatus: HP8452 UV/Vis diode array spectrophotometer, 1 cm quarts cuvette. Buffer: Sodium acetate (Merck)
10 mM acetate buffer was prepared from sodium acetate adjusted to pH 5.0 with sulphuric acid. Stock solution of 0.50 mg/ml in 96% ethanol was prepared of nicotine, chlorogenic acid, rutin, and scopoletin. A stock solution of 0.31 mg enzyme protein/ml of laccase in de-mineralised water was prepared. The HP diode array spectrophotometer was operated as per the manufacturer's instructions. A 1 cm quartz cuvette was used. As a blank was used 950µl buffer mixed with 50µl 96% ethanol. In a 1 cm quart cuvette was mixed 900µl 10 mM acetate buffer and 50µl of the stock solution of the compound in question. A spectrum of the "native" compound was recorded in the range 190-700 nm. 50µl of TvL stock solution was added and carefully mixed, and spectra in the range 190-700 nm were recorded every 20 seconds for 5 minutes.

[2] = target: T2, Trametes villosa laccase (TvL) (Trametes villosa, UniProt Q99044); assay: Laccase TvL treatment of tobacco extract, HPLC analysis of phenolic compounds (peak area); type: biochemical; settings: for % Remaining (peak area) after various treatment times: intensive, submerse aeration; for % Remaining (peak area) after 75 minutes / % Remaining (peak area) after 240 minutes: 1.6 µg/ml TvL, ambient temperature (approximately 20°C), surface aeration
T2 construct: purchased Novo Nordisk A/S
T2 sequence (Q99044 22-520): T1 sequence (Q99044 22-520)
Description: The content of phenolic compounds is analysed by HPLC according to the procedure described below: • Liquid chromatographic system: E.g. Shimadzu SCL-6B System Controller, and two LC-6A Liquid Chromatograph (pumps) or Waters model 600 E • Injector: Shimadzu SIL 6B Autoinjector or Waters 715 Ultra Wisp. UV detector: Shimadzu SPD-6A Photodiode Array UV-VIS detector or Waters Model 481 • Software: CLASS LC10 / CLASS-MXA or Maxima 820 • Column: Supelcosil™ LC-18 25 cm x 4.6 mm (Supelco, #5-8298) or µ Bondapack C198 stainless steel column, 30 cm x 4 mm i.d., 10 µm particle size. • Guard column: none or Guard-Pak from Waters packed with the same material. • Temperature: Ambient • Mobile phase flow: 1.3 ml/min • Injection volume: 20µl • Wavelength: 350 nm • Eluent: Binary gradient (linear) mixture of A: KH2PO4 (28.4 g in 2000 ml de-mineralised water) and B: methanol (please see table 1 and figure 1). The eluent is filtered through a 0.45 µm filter and degassed before use.
Prior to HPLC analysis, the samples were filtered through a 0.45 µm filter or smaller, e.g. a sterile Sartorius Minisart 0.45 µm filter (#16555) or a Millipore Millex-GS 0.22 µm (#SBGS 0 25 SB) to remove the haze/precipitate normally formed during enzyme treatment. Normally, no dilution of the extract/sample was made before HPLC analysis.
For qualitative and semi-quantitative measurements, each of the standards was dissolved in 96% ethanol, and then mixed in a ratio and at a concentration which was within the range in the tobacco extract. For semi-quantification of the phenolic compounds in the tobacco extract, and as a measure of development in concentration of the various compounds contained in the extract, decrease in peak area relative to the peak area before addition of enzyme was used. As a measure of overall efficiency of the process, degree of reduction in total peak area of all peaks (not only the major ones) in the HPLC chromatogram with retention time Rt>3 min was used (named: "All peaks").
Unless otherwise indicated, the tobacco was extracted at a laboratory scale with water according to the following procedure: 1000 ml demineralised water is heated to 45°C. 30 g tobacco (approx. 25 g d.m.) is added and the mixture stirred by a magnetic bar and occasionally with a stick. After 15 minutes the tobacco residue is separated from the tobacco extract by vacuum filtration (Whatman glass micro fibre GF/F 11 cm). The filtered extract is then vacuum filtered at least once more or until it is completely clear. Yield was around 900 ml tobacco extract. […] No buffer was thus included in any of the trials. D.m. content of the extract was approximately 2.1%.
Tobacco extract (typically 50-100 ml) was poured into a glass beaker and a magnetic bar was added. No pH adjustments were made, and no buffer was added. The tobacco extract was heated to and controlled at 55°C during the entire enzyme treatment by means of a heating plate and a thermostat. Intensive submerse aeration was applied by blowing atmospheric air into the extract by means of a metal sinter (metal suction filter normally used for HPLC). The enzyme in question (TvL or PpL) was added to the desired concentration. Shortly after addition of laccase, the colour of the tobacco extract turned dark brown to black, and with time the liquor became turbid and a precipitate formed. The liquor was sampled with intervals for HPLC analysis.
Enzyme treatment: Surface aeration was used. TvL enzyme was added to the tobacco extract to a concentration of approximately 1.6 µg/ml. […] HPLC chromatograms of the tobacco extract before, during, and after enzyme treatment as well as chromatograms of the mixture of HPLC standards are shown in figure 6, 7, ,8, and 9.
Enzyme treatment: pH of the extract was adjusted with H2SO4 or NaOH to pH 4, pH 5, pH 6, or pH 7. The extract was kept at ambient temperature (approximately 20°C) during the entire enzyme treatment. Surface aeration was used. […]

Row | Structure (SMILES) | spectral changes (peak position and peak relative height) [1] | % Remaining (peak area) after various treatment times ([2]; 40 Min, approximately 1.6 µg/ml TvL at 55°C and pH 5.4) [%] | % Remaining (peak area) after various treatment times ([2]; 40 Min, approximately 7.8µg/ml TvL at 55°C and pH 5.4) [%] | % Remaining (peak area) after various treatment times ([2]; 80 Min, approximately 1.6 µg/ml TvL at 55°C and pH 5.4) [%] | % Remaining (peak area) after various treatment times ([2]; 120 Min, approximately 1.6 µg/ml TvL at 55°C and pH 5.4) [%] | % Remaining (peak area) after 75 minutes ([2]; pH 4) [%] | % Remaining (peak area) after 240 minutes ([2]; pH 4) [%] | % Remaining (peak area) after 75 minutes ([2]; pH 5) [%] | % Remaining (peak area) after 240 minutes ([2]; pH 5) [%] | % Remaining (peak area) after 75 minutes ([2]; pH 6) [%] | % Remaining (peak area) after 240 minutes ([2]; pH 6) [%] | % Remaining (peak area) after 75 minutes ([2]; pH 7) [%] | % Remaining (peak area) after 240 minutes ([2]; pH 7) [%]
1 | CN1CCCC1c1cccnc1 (stereo not shown) [Nicotine] | No spectral changes |  |  |  |  |  |  |  |  |  |  |  | 
2 | C[C@@H]1O[C@@H](OC[C@H]2O[C@@H](Oc3c(-c4ccc(O)c(O)c4)oc4cc(O)cc(O)c4c3=O)[C@H](O)[C@@H](O)[C@@H]2O)[C@H](O)[C@H](O)[C@H]1O [R, rutin] |  | 20 | 0 | 0 | 0 | 44 | 0 | 29 | 0 | 14 | 0 | 87 | 63
